{"source": "patent US11945836B2", "about": "“Compositions and methods for treating CNS disorders” (Sage Therapeutics, Inc., priority 2014, dated 2024)", "data": [{"biological_target": "rat brain cortical membranes ([35S]-TBPS binding)", "assay": "Steroid inhibition of [35S]-TBPS binding (radioligand displacement)", "settings": "3 nM [35S]-TBPS, in the presence of 5 μM GABA", "experimental": "Steroid Inhibition of TBPS Binding\nTBPS binding assays using rat brain cortical membranes in the presence of 5 μM GABA has been described (Gee et al, J. Pharmacol. Exp. Ther. 1987, 241, 346-353; Hawkinson et al, Mol. Pharmacol. 1994, 46, 977-985; Lewin, A. H et al., Mol. Pharmacol. 1989, 35, 189-194).\nBriefly, cortices are rapidly removed following decapitation of carbon dioxide-anesthetized Sprague-Dawley rats (200-250 g). The cortices are homogenized in 10 volumes of ice-cold 0.32 M sucrose using a glass/teflon homogenizer and centrifuged at 1500×g for 10 min at 4° C. The resultant supernatants are centrifuged at 10,000×g for 20 min at 4° C. to obtain the P2 pellets. The P2 pellets are resuspended in 200 mM NaCl/50 mM Na—K phosphate pH 7.4 buffer and centrifuged at 10,000×g for 10 min at 4° C. This washing procedure is repeated twice and the pellets are resuspended in 10 volumes of buffer. Aliquots (100 uL) of the membrane suspensions are incubated with 3 nM [^35S]-TBPS and 5 μL aliquots of test drug dissolved in dimethyl sulfoxide (DMSO) (final 0.5%) in the presence of 5 μM GABA. The incubation is brought to a final volume of 1.0 mL with buffer. […] Following a 90 min incubation at room temp, the assays are terminated by filtration through glass fiber filters (Schleicher and Schuell No. 32) using a cell harvester (Brandel) and rinsed three times with ice-cold buffer. Filter bound radioactivity is measured by liquid scintillation spectrometry. Non-linear curve fitting of the overall data for each drug averaged for each concentration is done using Prism (GraphPad). […] The concentration of test compound producing 50% inhibition (IC50) of specific binding and the maximal extent of inhibition (Imax) are determined for the individual experiments with the same model used for the overall data and then the means±SEMs of the individual experiments are calculated.\nVarious compounds are or can be screened to determine their potential as modulators of [^35S]-TBPS binding in vitro. These assays are or can be performed in accordance with the above discussed procedures.", "units": {"IC50": "nM"}, "values": [{"smiles": "C[C@@]1(O)CC[C@H]2[C@H](CC[C@@H]3[C@@H]2CC[C@]2(C)[C@@H](C(=O)c4ccccc4)CC[C@@H]32)C1", "note": "[Compound 1]", "IC50": "< 20"}, {"smiles": "C[C@@]1(O)CC[C@H]2[C@H](CC[C@@H]3[C@@H]2CC[C@]2(C)[C@@H](C(=O)c4nc5ccccc5s4)CC[C@@H]32)C1", "note": "[Compound 8]", "IC50": "> 100"}, {"smiles": "Cc1cc(C(=O)[C@H]2CC[C@H]3[C@@H]4CC[C@@H]5C[C@](C)(O)CC[C@]5(C)[C@H]4CC[C@]23C)ccc1F", "note": "[Compound 137]", "IC50": "20 to 50"}, {"smiles": "Cc1ccc(C(=O)[C@H]2CC[C@H]3[C@@H]4CC[C@H]5C[C@](C)(O)CC[C@]5(C)[C@H]4CC[C@]23C)cc1", "note": "[Compound 75]", "IC50": "> 100"}, {"smiles": "Cn1ccnc1C(=O)[C@H]1CC[C@H]2[C@@H]3CC[C@@H]4C[C@](C)(O)CC[C@@H]4[C@H]3CC[C@]12C", "note": "[Compound 3]", "IC50": "> 100"}, {"smiles": "C[C@@]1(O)CC[C@@]2(C)[C@@H](CC[C@@H]3[C@@H]2CC[C@]2(C)[C@@H](C(=O)c4ccc(F)cc4)CC[C@@H]32)C1", "note": "[Compound 79]", "IC50": "> 100"}, {"smiles": "COC[C@]12CC[C@@](C)(O)C[C@@H]1CC[C@H]1[C@@H]3CC[C@H](C(=O)c4ccccc4OC)[C@@]3(C)CC[C@@H]12", "note": "[Compound 105]", "IC50": "> 100"}, {"smiles": "Cn1c(C(=O)[C@H]2CC[C@H]3[C@@H]4CC[C@@H]5C[C@](C)(O)CC[C@@H]5[C@H]4CC[C@]23C)nc2ccccc21", "note": "[Compound 6]", "IC50": "> 100"}, {"smiles": "C[C@@]1(O)CC[C@H]2[C@H](CC[C@@H]3[C@@H]2CC[C@]2(C)[C@@H](C(=O)c4cc(F)cc(F)c4)CC[C@@H]32)C1", "note": "[Compound 136, (3,5-difluorophenyl)((3R,5R,8R,9R,10S,13S,14S,17S)-3-hydroxy-3,13-dimethylhexadecahydro-1H-cyclopenta[a]phenanthren-17-yl)methanone]", "IC50": "20 to 50"}, {"smiles": "C[C@@]1(O)CC[C@@]2(C)[C@H](CC[C@@H]3[C@@H]2CC[C@]2(C)[C@@H](C(=O)c4ccc5ccccc5c4)CC[C@@H]32)C1", "note": "[Compound 18]", "IC50": "50 to 100"}, {"smiles": "CN(C)c1ccc(C(=O)[C@H]2CC[C@H]3[C@@H]4CC[C@H]5C[C@](C)(O)CC[C@@H]5[C@H]4CC[C@]23C)cc1", "note": "[Compound 111]", "IC50": "> 100"}, {"smiles": "C[C@@]1(O)CC[C@H]2[C@H](CC[C@@H]3[C@@H]2CC[C@]2(C)[C@@H](C(=O)c4ccc(OC(F)(F)F)cc4)CC[C@@H]32)C1", "note": "[Compound 34]", "IC50": "< 20"}, {"smiles": "C[C@@]1(O)CC[C@H]2[C@H](CC[C@@H]3[C@@H]2CC[C@]2(C)[C@@H](C(=O)c4cnc[nH]4)CC[C@@H]32)C1", "note": "[Compound 88]", "IC50": "> 100"}, {"smiles": "C[C@@]1(O)CC[C@@]2(C)[C@@H](CC[C@@H]3[C@@H]2CC[C@]2(C)[C@@H](C(=O)c4ccccc4F)CC[C@@H]32)C1", "note": "[Compound 80]", "IC50": "> 100"}, {"smiles": "COc1ccc2cc(C(=O)[C@H]3CC[C@H]4[C@@H]5CC[C@@H]6C[C@](C)(O)CC[C@@H]6[C@H]5CC[C@]34C)ccc2c1", "note": "[Compound 72]", "IC50": "20 to 50"}, {"smiles": "C[C@@]1(O)CC[C@@]2(C)[C@@H](CC[C@@H]3[C@@H]2CC[C@]2(C)[C@@H](C(=O)c4cccc(Cl)c4)CC[C@@H]32)C1", "note": "[Compound 101]", "IC50": "> 100"}, {"smiles": "Cc1ccc(C(=O)[C@H]2CC[C@H]3[C@@H]4CC[C@H]5C[C@](C)(O)CC[C@]5(C)[C@H]4CC[C@]23C)cc1C", "note": "[Compound 39]", "IC50": "50 to 100"}, {"smiles": "COC[C@]12CC[C@@](C)(O)C[C@@H]1CC[C@H]1[C@@H]3CC[C@H](C(=O)c4ccc(C)c(C)c4)[C@@]3(C)CC[C@@H]12", "note": "[Compound 95]", "IC50": "> 100"}, {"smiles": "CN(C)c1ccc(C(=O)[C@H]2CC[C@H]3[C@@H]4CC[C@H]5C[C@](C)(O)CC[C@]5(C)[C@H]4CC[C@]23C)cc1", "note": "[Compound 114]", "IC50": "> 100"}, {"smiles": "Cc1ccsc1C(=O)[C@H]1CC[C@H]2[C@@H]3CC[C@@H]4C[C@](C)(O)CC[C@@H]4[C@H]3CC[C@]12C", "note": "[Compound 46]", "IC50": "> 100"}, {"smiles": "COc1ccc2cc(C(=O)[C@H]3CC[C@H]4[C@@H]5CC[C@H]6C[C@](C)(O)CC[C@]6(C)[C@H]5CC[C@]34C)ccc2c1", "note": "[Compound 128]", "IC50": "> 100"}, {"smiles": "CSc1ccc(C(=O)[C@H]2CC[C@H]3[C@@H]4CC[C@@H]5C[C@](C)(O)CC[C@]5(C)[C@H]4CC[C@]23C)cc1", "note": "[Compound 48]", "IC50": "20 to 50"}, {"smiles": "COc1ccc(C(=O)[C@H]2CC[C@H]3[C@@H]4CC[C@H]5C[C@](C)(O)CC[C@@H]5[C@H]4CC[C@]23C)cc1", "note": "[Compound 87]", "IC50": "> 100"}]}, {"biological_target": "T1, GABAA receptors α1β2γ2 (Homo sapiens, UniProt P14867+P47870)", "T1 construct": "expressed in transfected cells; host or cells: LTK (Ltk) cells, stably transfected", "T1 sequence (P14867 28-456)": "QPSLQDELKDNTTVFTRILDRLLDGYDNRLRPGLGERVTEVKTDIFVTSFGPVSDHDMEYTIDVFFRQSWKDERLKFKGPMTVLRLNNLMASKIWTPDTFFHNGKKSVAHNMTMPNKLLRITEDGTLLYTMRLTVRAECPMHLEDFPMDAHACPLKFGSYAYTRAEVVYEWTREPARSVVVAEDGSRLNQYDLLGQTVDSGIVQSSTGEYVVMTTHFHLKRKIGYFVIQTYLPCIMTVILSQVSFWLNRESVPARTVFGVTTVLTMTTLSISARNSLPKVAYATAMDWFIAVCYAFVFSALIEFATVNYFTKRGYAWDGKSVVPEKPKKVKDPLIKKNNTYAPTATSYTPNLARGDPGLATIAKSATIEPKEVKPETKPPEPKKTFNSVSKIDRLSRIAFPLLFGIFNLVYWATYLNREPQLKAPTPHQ", "T1 sequence (P47870 25-512 limits assumed)": "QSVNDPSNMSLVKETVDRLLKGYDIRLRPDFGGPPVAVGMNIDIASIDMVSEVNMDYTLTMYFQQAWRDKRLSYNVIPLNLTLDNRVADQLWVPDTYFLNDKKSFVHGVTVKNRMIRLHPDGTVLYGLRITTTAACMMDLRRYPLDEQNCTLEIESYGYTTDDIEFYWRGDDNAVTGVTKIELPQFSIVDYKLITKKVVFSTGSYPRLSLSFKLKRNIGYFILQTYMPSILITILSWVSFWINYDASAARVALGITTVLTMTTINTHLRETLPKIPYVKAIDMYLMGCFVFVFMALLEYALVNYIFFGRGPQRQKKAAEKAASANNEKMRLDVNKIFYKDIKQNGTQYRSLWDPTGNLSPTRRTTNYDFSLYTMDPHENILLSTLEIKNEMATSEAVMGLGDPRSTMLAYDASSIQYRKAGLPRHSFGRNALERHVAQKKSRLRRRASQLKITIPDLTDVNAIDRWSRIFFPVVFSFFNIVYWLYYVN", "T1 sequence (P18507 40-475 partner)": "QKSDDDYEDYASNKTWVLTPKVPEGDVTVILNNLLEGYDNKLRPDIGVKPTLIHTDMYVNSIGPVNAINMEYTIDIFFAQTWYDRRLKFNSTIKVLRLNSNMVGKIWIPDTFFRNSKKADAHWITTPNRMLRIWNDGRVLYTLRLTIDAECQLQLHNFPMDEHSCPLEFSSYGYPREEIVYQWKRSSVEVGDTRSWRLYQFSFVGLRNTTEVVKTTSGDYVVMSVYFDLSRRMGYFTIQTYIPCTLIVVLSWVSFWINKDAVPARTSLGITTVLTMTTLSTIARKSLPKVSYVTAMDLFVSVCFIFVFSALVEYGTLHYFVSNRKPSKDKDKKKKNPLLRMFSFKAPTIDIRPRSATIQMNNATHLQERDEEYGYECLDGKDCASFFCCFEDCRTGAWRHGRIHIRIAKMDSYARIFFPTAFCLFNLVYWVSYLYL", "assay": "Patch clamp electrophysiology (QPatch) of recombinant GABAA receptors in Ltk cells", "assay_type": "cell-based", "settings": "10 μM test article, 2 μM GABA (EC20), Ltk cells stably transfected with α1β2γ2, relative percentage potentiation; read-out: GABA (α1β2γ2) Qpatch in Ltk, % efficacy at 10 μM", "experimental": "Patch Clamp Electrophysiology of Recombinant α1β2γ2 and α4β3δ GABAA Receptors\nCellular electrophysiology is used to measure the pharmacological properties of our GABAA receptor modulators in heterologous cell systems. Each compound is tested for its ability to affect GABA mediated currents at a submaximal agonist dose (GABA EC20=2 μM). LTK cells are stably transfected with the α1β2γ2 subunits of the GABA receptor and CHO cells are transiently transfected with the α4β3δ subunits via the Lipofecatamine method. Cells were passaged at a confluence of about 50-80% and then seeded onto 35 mm sterile culture dishes containing 2 ml culture complete medium without antibiotics or antimycotics. Confluent clusters of cells are electrically coupled (Pritchett et al., Science, 1988, 242, 1306-1308). Because responses in distant cells are not adequately voltage clamped and because of uncertainties about the extent of coupling (Verdoorn et al., Neuron 1990, 4, 919-928), cells were cultivated at a density that enables the recording of single cells (without visible connections to other cells).\nWhole cell currents were measured with HEKA EPC-10 amplifiers using PatchMaster software or by using the high throughput QPatch platform (Sophion). Bath solution for all experiments contained (in mM): NaCl 137 mM, KCl 4 mM, CaCl2 1.8 mM, MgCl2 1 mM, HEPES 10 mM, D-Glucose 10 mM, pH (NaOH) 7.4. […]", "units": {"Emax at 10 µM": "%"}, "values": [{"smiles": "C[C@@]1(O)CC[C@H]2[C@H](CC[C@@H]3[C@@H]2CC[C@]2(C)[C@@H](C(=O)c4ccccc4)CC[C@@H]32)C1", "note": "[Compound 1]", "Emax at 10 µM": "> 500"}, {"smiles": "C[C@@]1(O)CC[C@H]2[C@H](CC[C@@H]3[C@@H]2CC[C@]2(C)[C@@H](C(=O)c4nc5ccccc5s4)CC[C@@H]32)C1", "note": "[Compound 8]", "Emax at 10 µM": "100 to 500"}]}]}
